Data as given in US10034886B2, “GLP-1 receptor modulators” (Celgene International II SÀRL, priority 2014, dated 2018).

These compounds were tested against T1, GLP-1R (Homo sapiens, UniProt P43220) (assay: EC20 GLP-1(9-36) PAM cAMP assay: dose response of compound in the presence of fixed concentration of GLP-1(9-36)). Conditions: GLP-1R CRE-bla CHO-K1 cells, compound dose response with fixed concentration of GLP-1(9-36), read-out: EC20 GLP-1(9-36) PAM EC50.
T1 construct: host or cells: GLP-1R CRE-bla CHO-K1 cells
T1 sequence (P43220 24-463): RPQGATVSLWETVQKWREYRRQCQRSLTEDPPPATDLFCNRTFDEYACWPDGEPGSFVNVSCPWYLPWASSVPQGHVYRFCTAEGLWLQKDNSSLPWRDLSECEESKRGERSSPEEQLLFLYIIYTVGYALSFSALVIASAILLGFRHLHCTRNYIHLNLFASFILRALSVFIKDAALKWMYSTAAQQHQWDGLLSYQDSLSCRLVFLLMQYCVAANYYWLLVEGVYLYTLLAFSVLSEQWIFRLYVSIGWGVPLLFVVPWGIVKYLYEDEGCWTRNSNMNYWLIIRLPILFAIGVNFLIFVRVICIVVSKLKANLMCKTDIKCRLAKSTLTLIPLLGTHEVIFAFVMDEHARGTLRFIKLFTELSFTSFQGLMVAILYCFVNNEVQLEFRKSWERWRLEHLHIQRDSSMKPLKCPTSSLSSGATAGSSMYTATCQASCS
T1 sequence (P01275 100-127 partner limits assumed): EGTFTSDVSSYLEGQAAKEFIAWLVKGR
Assay type: cell-based
Protocol: EC20 GLP-1(9-36) PAM cAMP Assay: Dose Response of Compound in the Presence of Fixed Concentration of GLP-1 (9-36).
GLP-1R CRE-bla CHO-K1 cells cultured in growth medium (DMEM-High glucose, 10% dialyzed FBS, 0.1 mM NEAA, 25 mM Hepes, 100 U/mL penicillin/100 μg/mL streptomycin, 5 μg/mL Blasticidin, 600 μg/mL Hygromycin) were trypsinized and plated in suspension into 384 well white flat bottom plates at 5000 cells/well in 12 μL assay buffer (Hanks Balanced Salt solution, 10 mM hepes, 0.1% BSA, pH 7.4). A 5× compound dose response curve (12-point) was generated in assay buffer containing 1.5 mM IBMX, 4% DMSO. GLP-1(9-36) was diluted to 4.2 μM in assay buffer containing 1.5 mM IMBX and 4% DMSO. The 5× compound dose response was added (3 μL), followed by 0.5 μL of GLP-1(9-36) and cells were incubated for 30 min at 37° C. Direct detection of cAMP was carried out using DiscoveRx HitHunter cAMP kit according to manufacturer's instructions and luminescence was read using a SpectraMax M5 plate reader. Luminescence was converted to total cAMP using a cAMP standard curve and data was analyzed by non-linear regression to determine the EC50 and Emax.
GLP-1(7-36): […]-NH2 (SEQ ID NO: 2). GLP-1(9-36): […]-NH2 (SEQ ID NO: 3). GLP-1(7-36) was purchased from GenScript. GLP-1(9-36) was purchased from Biopeptide Co., Inc.
The EC20GLP-1(9-36) PAM Activity range is denoted as follows: + denotes activity <0.8 μM, ++ denotes activity between 0.8 and 2.5 μM, +++ denotes activity between 2.5 and 5 μM, and ++++ denotes activity 5 to 10 μM.

EC50	Structure (SMILES)
800 to 2500 nM	CCCc1ccc(N2CCN(c3cnc(-c4ccc(CC(NC(=O)c5ccc(C(C)(C)C)s5)C(=O)N5CC(C(=O)O)C5)cc4)nc3)C(=O)C2)cc1 (racemic) [Compound 1411]
800 to 2500 nM	CCCCCCCOc1ccc(-c2nnc(-c3ccc(CC(NC(=O)c4ccc(C(C)(C)C)cc4)C(=O)O)cc3F)s2)cc1 (stereo in doubt) [Compound 1552, (S)-2-(4-(tert-butyl)benzamido)-3-(3-fluoro-4-(5-(4-(heptyloxy)phenyl)-1,3,4-thiadiazol-2-yl)phenyl)propanoic acid]

Same assay, conditions: dose response of compound in presence of fixed concentration of GLP-1(9-36), GLP-1R CRE-bla CHO-K1 cells, read-out: EC20 GLP-1(9-36) PAM EC50

Structure (SMILES)	EC50
CCCCCCCOc1ccc(-c2cnc(-c3ccc(C[C@H](NC(=O)c4ncc(C(C)C)s4)C(=O)O)cc3)nc2)cc1 [Compound 148]	800 to 2500 nM
CCCCCCCOc1ccc(-c2cnc(-c3ccc(C[C@@H](NC(=O)c4ccc(C(C)(C)C)cc4)C(=O)O)cc3)nc2)cc1 [Compound 191, (R)-2-(4-(tert-butyl)benzamido)-3-(4-(5-(4-(heptyloxy)phenyl)pyrimidin-2-yl)phenyl)propanoic acid]	800 to 2500 nM
CCCCCCc1nc(-c2cnc(-c3ccc(C[C@H](NC(=O)c4ccc(C(C)(C)C)cc4)C(=O)O)cc3)nc2)no1 [Compound 248, (S)-2-(4-(tert-butyl)benzamido)-3-(4-(5-(5-hexyl-1,2,4-oxadiazol-3-yl)pyrimidin-2-yl)phenyl)propanoic acid]	2500 to 5000 nM
CCCCCCOc1ccc(-c2ccc(-c3ccc(C[C@H](NC(=O)c4ccc(C(C)(C)C)cc4)C(=O)O)cc3)cn2)cc1 [Compound 270]	2500 to 5000 nM
CCCCCCCOc1ccc(-c2ccc(-c3ccc(C[C@H](NC(=O)c4ccc(C(C)(C)C)cc4)C(=O)O)cc3)nn2)cc1 [Compound 273]	800 to 2500 nM
CCCCCCCOc1ccc(-c2ncc(-c3ccc(C[C@H](NC(=O)c4ccc(C(C)(C)C)cc4)C(=O)O)cc3)nn2)cc1 [Compound 275]	800 to 2500 nM
CCCCCCCOc1ccc(-c2cnc(-c3ccc(C[C@H](NC(=O)c4ccc(C(C)(C)C)s4)C(=O)N4CCC[C@H]4C(=O)O)cc3)nc2)cc1 [Compound 328, (S)-1-((S)-2-(5-(tert-butyl)thiophene-2-carboxamido)-3-(4-(5-(4-(heptyloxy)-phenyl)pyrimidin-2-yl)phenyl)propanoyl)pyrrolidine-2-carboxylic acid]	< 800 nM
CCCCCCCOc1ccc(-c2cnc(-c3ccc(C[C@@H](NC(=O)c4ccc(C(C)(C)C)cc4)C(=O)NCC(=O)O)cc3)nc2)cc1 [Compound 380]	800 to 2500 nM
CC(C)(C)c1ccc(-c2cnc(-c3ccc(C[C@H](NC(=O)c4ccc(C(C)(C)C)s4)C(=O)N[C@H]4CCC[C@H]4C(=O)O)cc3)nc2)cc1 [Compound 382]	800 to 2500 nM
CCCCCCCOc1ccc(-c2cnc(-c3ccc(C[C@H](NC(=O)c4ccc(C(C)(C)C)s4)C(=O)NCCN(C)C)cc3)nc2)cc1 [Compound 385]	5000 to 10000 nM
CCCCCCCOc1ccc(-c2cnc(-c3ccc(C[C@H](NC(=O)c4ccc(C(C)(C)C)s4)C(=O)NCCOC)cc3)nc2)cc1 [Compound 386]	800 to 2500 nM
CCCCCCCOc1ccc(-c2cnc(-c3ccc(C[C@H](NC(=O)c4ccc(C(C)(C)C)s4)C(=O)NCCNC(C)=O)cc3)nc2)cc1 [Compound 389]	800 to 2500 nM
CCCCCCCOc1ccc(-c2cnc(-c3ccc(C[C@H](NC(=O)c4ccc(C(C)(C)C)s4)C(=O)NCC4CCNC4)cc3)nc2)cc1 (some centres unmarked) [Compound 390]	800 to 2500 nM
CC(C)(C)c1ccc(-c2cnc(-c3ccc(CC(NC(=O)c4ccc(C(C)(C)C)s4)C(=O)O)cc3F)nc2)cc1 (centres unmarked) [Compound 391]	2500 to 5000 nM
CCCCCCCOc1ccc(-c2cnc(-c3ccc(C[C@H](NC(=O)c4ccc(C(C)(C)C)s4)C(=O)N[C@@H](CCCN)C(=O)O)cc3)nc2)cc1 [Compound 393]	800 to 2500 nM
CCCCCCCOc1ccc(-c2cnc(-c3ccc(C[C@H](NC(=O)c4ccc(C(C)(C)C)s4)C(=O)NC4(C(=O)O)CCCC4)cc3)nc2)cc1 [Compound 395]	800 to 2500 nM
CCCCCCCOc1ccc(-c2cnc(-c3ccc(C[C@H](NC(=O)c4ccc(C(C)(C)C)s4)C(=O)NC(C(=O)O)C4CCOCC4)cc3)nc2)cc1 (some centres unmarked) [Compound 396]	< 800 nM
CCCCCCc1nnc(-c2cnc(-c3ccc(C[C@H](NC(=O)c4ccc(C(C)(C)C)cc4)C(=O)O)cc3)nc2)s1 [Compound 397, (S)-2-(4-(tert-butyl)benzamido)-3-(4-(5-(5-hexyl-1,3,4-thiadiazol-2-yl)pyrimidin-2-yl)phenyl)propanoic acid]	2500 to 5000 nM
CCCCCCCOc1ccc(-c2cnc(-c3ccc(C[C@H](NC(=O)c4ccc(C(C)(C)C)cc4)C(=O)N[C@H](C)C(=O)O)cc3)nc2)cc1 [Compound 398, (R)-2-((S)-2-(4-(tert-butyl)benzamido)-3-(4-(5-(4-(heptyloxy)phenyl)pyrimidin-2-yl)phenyl)propanamido)propanoic acid]	< 800 nM
CCCCCCCOc1ccc(-c2cnc(-c3ccc(C[C@H](NC(=O)c4ccc(C(C)(C)C)cc4)C(=O)N[C@@H](CCC(N)=O)C(=O)O)cc3)nc2)cc1 [Compound 399]	< 800 nM
CCCCCCCOc1ccc(-c2cnc(-c3ccc(C[C@H](NC(=O)c4ccc(C(C)(C)C)cc4)C(=O)N[C@@H](C)C(=O)O)cc3)nc2)cc1 [Compound 400]	< 800 nM
CCCCCCCOc1ccc(-c2cnc(-c3ccc(C[C@H](NC(=O)c4ccc(C(C)(C)C)s4)C(=O)N[C@@H](CC)C(=O)O)cc3)nc2)cc1 [Compound 401]	< 800 nM
CCCCCCCOc1ccc(-c2cnc(-c3ccc(C[C@H](NC(=O)c4ccc(C(C)(C)C)s4)C(=O)N[C@H](CC)C(=O)O)cc3)nc2)cc1 [Compound 402]	< 800 nM
CCCCCCCOc1ccc(-c2cnc(-c3ccc(C[C@H](NC(=O)c4ccc(C(C)(C)C)s4)C(=O)N[C@@H](CCC)C(=O)O)cc3)nc2)cc1 [Compound 403]	800 to 2500 nM
CCCCCCCOc1ccc(-c2cnc(-c3ccc(CC(NC(=O)c4ccc(C(C)(C)C)s4)C(=O)N[C@@H](CC(C)C)C(=O)O)cc3)nc2)cc1 (some centres unmarked) [Compound 408]	800 to 2500 nM
CCCCCCCOc1ccc(-c2cnc(-c3ccc(C[C@H](NC(=O)c4ccc(C(C)(C)C)cc4)C(=O)NC(C)(C)C(=O)O)cc3)nc2)cc1 [Compound 409]	800 to 2500 nM

Now from value to compound:

EC50	Structure (SMILES)
2500 to 5000 nM	CCCCCCCOc1ccc(-c2cnc(-c3ccc(C(NC(=O)c4ccc(C(C)(C)C)s4)C(=O)O)cc3)nc2)cc1 (centres unmarked) [Compound 289, 2-(5-(tert-butyl)thiophene-2-carboxamido)-2-(4-(5-(4-(heptyloxy)phenyl)pyrimidin-2-yl)phenyl)acetic acid]
2500 to 5000 nM	CCCCCCCOc1ccc(-c2cnc(-c3ccc(C[C@H](NC(=O)c4ccc(C(C)(C)C)s4)C(=O)NC)cc3)nc2)cc1 [Compound 383]
5000 to 10000 nM	CCCCCCCOc1ccc(-c2cnc(-c3ccc(C[C@H](NC(=O)c4ccc(C(C)(C)C)s4)C(=O)NCCN)cc3)nc2)cc1 [Compound 384]
5000 to 10000 nM	CCCCCCCOc1ccc(-c2cnc(-c3ccc(C[C@H](NC(=O)c4ccc(C(C)(C)C)s4)C(=O)NC(C)CO)cc3)nc2)cc1 (some centres unmarked) [Compound 387]
2500 to 5000 nM	CCCCCCCOc1ccc(-c2cnc(-c3ccc(C[C@H](NC(=O)c4ccc(C(C)(C)C)s4)C(=O)NCC(C)O)cc3)nc2)cc1 (some centres unmarked) [Compound 388]
2500 to 5000 nM	CCCCCCCOc1ccc(-c2cnc(-c3ccc(C[C@H](NC(=O)c4ccc(C(C)(C)C)s4)C(=O)N[C@H](CN)C(=O)O)cc3)nc2)cc1 [Compound 392]
2500 to 5000 nM	CCCCCCCOc1ccc(-c2cnc(-c3ccc(C[C@H](NC(=O)c4ccc(C(C)(C)C)s4)C(=O)N[C@@H](CN)C(=O)O)cc3)nc2)cc1 [Compound 394]
< 800 nM	CCCCCCCOc1ccc(-c2cnc(-c3ccc(C[C@H](NC(=O)c4ccc(C(C)(C)C)s4)C(=O)N[C@@H](C(=O)O)C4CC4)cc3)nc2)cc1 [Compound 404]
< 800 nM	CCCCCCCOc1ccc(-c2cnc(-c3ccc(C[C@H](NC(=O)c4ccc(C(C)(C)C)s4)C(=O)N[C@H](C(=O)O)C4CC4)cc3)nc2)cc1 [Compound 405]
800 to 2500 nM	CCCCCCCOc1ccc(-c2cnc(-c3ccc(C[C@H](NC(=O)c4ccc(C(C)(C)C)s4)C(=O)NC(C)(C)C(=O)O)cc3)nc2)cc1 [Compound 406]
< 800 nM	CCCCCCCOc1ccc(-c2cnc(-c3ccc(CC(NC(=O)c4ccc(C(C)(C)C)s4)C(=O)N[C@H](C(=O)O)C(C)C)cc3)nc2)cc1 (some centres unmarked) [Compound 407]
800 to 2500 nM	CCCCCCCOc1ccc(-c2cnc(-c3ccc(C[C@H](NC(=O)c4ccc(C(C)(C)C)s4)C(=O)N[C@@H](CCN)C(=O)O)cc3)nc2)cc1 [Compound 410, (S)-4-amino-2-((S)-2-(5-(tert-butyl)thiophene-2-carboxamido)-3-(4-(5-(4-(heptyloxy)phenyl)pyrimidin-2-yl)phenyl)propanamido)butanoic acid]
800 to 2500 nM	CCCCCCCOc1ccc(-c2cnc(-c3ccc(C[C@H](NC(=O)c4ccc(C(C)(C)C)s4)C(=O)N[C@H](CCN)C(=O)O)cc3)nc2)cc1 [Compound 411]
